Measurements published in the supplement of paper PMC10331698.
± gives the standard deviation of the averaged measurements.

Columns and labels:
Experiment in all cases: level (log10 ratio to DMSO vehicle control); higher = higher biomarker level / cell amount than vehicle control
[1] = compound: O=C(O)C(F)(OC(F)(F)C(F)(F)C(F)(F)F)C(F)(F)F [Ammonium perfluoro-2-methyl-3-oxahexanoate] (in Water)
Protocol: (§1)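 BioMAP Diversity Plus panel of 12 human primary cell co-culture systems (3C, 4H, LPS, SAg, BT, BF4T, BE3C, CASM3C, HDF3CGF, KF3CT, MyoF, Mphg). Compounds were added 1 h before stimulation and left for 24 h (MyoF 48 h; BT 72 h for soluble read-outs or 6 d for IgG). Biomarkers were read by ELISA, cytotoxicity by SRB, PBMC viability and proliferation by Alamar Blue. Each well value was divided by the mean of 8 DMSO control wells on the same plate and log10 transformed; duplicate blinded samples were tested at 4 concentrations.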

[2] = compound: CO[Si](C)(CCC(F)(F)C(F)(F)C(F)(F)C(F)(F)C(F)(F)C(F)(F)F)OC [Dimethoxymethyl((perfluorohexyl)ethyl)silane] (in DMSO)
Protocol: as §1

[3] = compound: O=S(=O)(O)C(F)(F)C(F)(F)OC(F)(F)C(F)(F)F [Perfluoro(2-ethoxyethane)sulfonic acid] (in DMSO)
Protocol: as §1

[4] = compound: OCC(F)(F)C(F)(F)C(F)(F)C(F)(F)C(F)(F)C(F)(F)CO [1H,1H,8H,8H-Perfluorooctane-1,8-diol] (in DMSO)
Protocol: as §1

[5] = compound: NS(=O)(=O)C(F)(F)C(F)(F)C(F)(F)C(F)(F)C(F)(F)C(F)(F)C(F)(F)C(F)(F)F [Perfluorooctanesulfonamide] (in DMSO)
Protocol: as §1

Octafluoroadipic acid = compound: O=C(O)C(F)(F)C(F)(F)C(F)(F)C(F)(F)C(=O)O [Octafluoroadipic acid] (in DMSO)
Protocol: as §1

[6] = compound: O=C(O)C(F)(OC(F)(F)C(F)(OC(F)(F)C(F)(OC(F)(F)C(F)(F)C(F)(F)F)C(F)(F)F)C(F)(F)F)C(F)(F)F [Perfluoro-(2,5,8-trimethyl-3,6,9-trioxadodecanoic)acid] (in DMSO)
Protocol: as §1

Test System | level (log10) ([1]; 6700 nM) | level (log10) ([1]; 20000 nM) | level (log10) ([1]; 60000 nM) | level (log10) ([2]; 6700 nM) | level (log10) ([2]; 20000 nM) | level (log10) ([3]; 6700 nM) | level (log10) ([3]; 20000 nM) | level (log10) ([3]; 60000 nM) | level (log10) ([4]; 6700 nM) | level (log10) ([4]; 20000 nM) | level (log10) ([4]; 60000 nM) | level (log10) ([5]; 6700 nM) | level (log10) ([5]; 20000 nM) | level (log10) (Octafluoroadipic acid; 6700 nM) | level (log10) (Octafluoroadipic acid; 20000 nM) | level (log10) (Octafluoroadipic acid; 60000 nM) | level (log10) ([6]; 1100 nM) | level (log10) ([6]; 3300 nM) | level (log10) ([6]; 10000 nM)
3C:CD87/uPAR | -0.016 ± 0.054 | -0.0085 ± 0.028 | -0.042 ± 0.021 | -0.002 ± 0.0071 | -0.026 ± 0.021 | 0.0105 ± 0.0064 | 0.0165 ± 0.0021 | 0.007 ± 0.0071 | -0.0245 ± 0.026 | -0.0125 ± 0.0092 | -0.019 ± 0.0028 | 0.006 ± 0.0099 | -0.0425 ± 0.016 | -0.023 ± 0.0057 | -0.0175 ± 0.025 | -0.014 ± 0.021 | -0.0075 ± 0.016 | -0.0005 ± 0.011 | -0.0105 ± 0.019
3C:CXCL8/IL-8 | 0.038 ± 0.037 | 0.0745 ± 0.029 | 0.131 ± 0.014 | -0.007 ± 0.0014 | 0.011 ± 0.0057 | 0.0295 ± 0.028 | 0.0455 ± 0.074 | 0.095 ± 0.062 | -0.0045 ± 0.0021 | -0.0055 ± 0.0064 | 0.0245 ± 0.023 | 0.012 ± 0.018 | 0.0635 ± 0.0064 | 0.001 ± 0.024 | -0.0095 ± 0.005 | 0.0215 ± 0.025 | -0.004 ± 0.021 | -0.015 ± 0.011 | 0.005 ± 0.024
3C:CXCL9/MIG | -0.0085 ± 0.011 | -0.003 ± 0.0099 | -0.004 | -0.011 ± 0.0014 | 0.003 ± 0.0071 | -0.0005 ± 0.0064 | -0.0045 ± 0.0035 | 0.0075 ± 0.0021 | 0.0015 ± 0.0035 | -0.0025 ± 0.005 | 0.0105 ± 0.013 | 0.0225 ± 0.021 | 0.006 ± 0.028 | -0.002 ± 0.0028 | -0.0095 ± 0.015 | 0.006 ± 0.0085 | 0.0125 ± 0.0078 | -0.0035 ± 0.021 | 0.007 ± 0.0071
3C:HLA-DR | 0.0075 ± 0.011 | 0.0175 ± 0.028 | 0.016 ± 0.0014 | 0.013 ± 0.014 | 0.029 ± 0.013 | -0.005 | -0.0045 ± 0.005 | 0.008 ± 0.0099 | -0.0115 ± 0.015 | -0.007 ± 0.0085 | -0.0175 ± 0.026 | -0.0115 ± 0.043 | -0.118 ± 0.082 | -0.007 ± 0.0099 | -0.004 ± 0.021 | 0.0035 ± 0.0078 | -0.0045 ± 0.0078 | -0.002 ± 0.0057 | 0.0115 ± 0.013
3C:Proliferation | -0.0765 ± 0.015 | -0.136 ± 0.031 | -0.149 ± 0.023 | 0.003 ± 0.014 | -0.0055 ± 0.03 | -0.043 ± 0.025 | -0.027 ± 0.034 | -0.0325 ± 0.042 | -0.059 ± 0.024 | -0.0565 ± 0.013 | -0.106 ± 0.042 | -0.039 ± 0.0099 | -0.208 ± 0.02 | -0.0705 ± 0.005 | 0.016 ± 0.013 | -0.007 ± 0.03 | 0.007 ± 0.02 | 0.013 ± 0.0085 | -0.011 ± 0.013
3C:SRB | -0.019 ± 0.011 | -0.021 ± 0.0042 | -0.045 | -0.006 ± 0.0028 | 0.0085 ± 0.0035 | -0.022 ± 0.0042 | -0.0025 ± 0.00071 | -0.0275 ± 0.0021 | 0.012 ± 0.017 | 0.0035 ± 0.025 | -0.0045 ± 0.04 | 0.0135 ± 0.022 | -0.088 ± 0.0042 | -0.007 ± 0.016 | -0.0045 ± 0.011 | -0.016 ± 0.0028 | -0.0025 ± 0.005 | -0.0065 ± 0.0035 | 0.003 ± 0.0071
4H:CCL2/MCP-1 | 0.0005 ± 0.029 | 0.007 ± 0.037 | 0.008 ± 0.051 | -0.05 ± 0.033 | 0.011 ± 0.12 | -0.019 ± 0.05 | -0.008 ± 0.021 | -0.0015 ± 0.016 | -0.058 ± 0.04 | -0.0485 ± 0.018 | -0.012 ± 0.02 | -0.093 ± 0.023 | -0.124 ± 0.0021 | -0.03 ± 0.018 | -0.0365 ± 0.025 | 0.03 ± 0.024 | 0.0005 ± 0.012 | -0.017 ± 0.0099 | 0.0205 ± 0.021
4H:CCL26/Eotaxin-3 | -0.0615 ± 0.0021 | -0.064 ± 0.0014 | -0.118 ± 0.012 | -0.0125 ± 0.023 | 0.011 ± 0.014 | 0.049 ± 0.027 | 0.0585 ± 0.0078 | 0.0405 ± 0.00071 | 0.0095 ± 0.019 | 0.0125 ± 0.019 | 0.0125 ± 0.0021 | -0.0145 ± 0.013 | -0.03 ± 0.042 | 0.022 ± 0.016 | 0.0185 ± 0.0092 | 0.016 ± 0.027 | 0.0005 ± 0.0078 | -0.0095 ± 0.023 | -0.0075 ± 0.005
4H:CD62P/P-selectin | -0.0475 ± 0.012 | -0.0065 ± 0.03 | -0.054 ± 0.048 | -0.0095 ± 0.033 | -0.0135 ± 0.036 | -0.02 ± 0.014 | 0.0445 ± 0.005 | -0.0105 ± 0.015 | -0.039 ± 0.0028 | 0.004 ± 0.011 | 0.0355 ± 0.0021 | 0.028 ± 0.014 | -0.0235 ± 0.018 | -0.0075 ± 0.043 | 0.0065 ± 0.042 | -0.007 ± 0.059 | -0.002 ± 0.069 | 0.0295 ± 0.0064 | -0.0445 ± 0.026
4H:CD87/uPAR | -0.033 ± 0.027 | -0.024 ± 0.033 | -0.06 ± 0.0014 | 0.004 ± 0.028 | 0.0195 ± 0.013 | 0.017 ± 0.062 | 0.0005 ± 0.049 | 0.0065 ± 0.059 | -0.013 ± 0.0014 | -0.0065 ± 0.0021 | -0.03 ± 0.017 | 0.0155 ± 0.0064 | -0.026 ± 0.028 | 0.04 ± 0.0071 | 0.039 ± 0.011 | 0.0345 ± 0.0064 | 0.001 ± 0.027 | -0.0025 ± 0.011 | 0.0075 ± 0.0092
4H:CD106/VCAM-1 | -0.0455 ± 0.005 | -0.0365 ± 0.018 | -0.037 ± 0.021 | 0.003 ± 0.011 | 0.0265 ± 0.0035 | -0.0085 ± 0.00071 | 0.0075 ± 0.037 | 0.01 ± 0.033 | -0.0295 ± 0.005 | 0.015 ± 0.023 | -0.007 ± 0.0085 | 0.013 ± 0.034 | -0.0335 ± 0.044 | -0.003 ± 0.0028 | -0.007 ± 0.018 | -0.007 ± 0.017 | 0.019 ± 0.013 | 0.027 ± 0.014 | 0.049 ± 0.0099
4H:SRB | -0.0075 ± 0.012 | -0.018 ± 0.014 | -0.0115 ± 0.005 | -0.015 ± 0.013 | 0.0065 ± 0.00071 | -0.015 ± 0.0057 | -0.0035 ± 0.0021 | -0.016 ± 0.023 | 0.0105 ± 0.0021 | 0.006 ± 0.0071 | -0.01 ± 0.025 | -0.005 ± 0.011 | -0.0815 ± 0.0021 | -0.002 ± 0.013 | 0.0025 ± 0.00071 | -0.0105 ± 0.0035 | 0.0045 ± 0.0064 | 0 ± 0.0028 | 0.009 ± 0.0057
4H:VEGFR2 | 0.0035 ± 0.04 | 0.007 ± 0.014 | 0.0095 ± 0.018 | -0.023 | -0.001 ± 0.027 | 0.009 ± 0.086 | 0.028 ± 0.057 | 0.0365 ± 0.12 | -0.0165 ± 0.042 | 0.01 ± 0.018 | 0.047 ± 0.068 | -0.0175 ± 0.035 | -0.006 ± 0.044 | 0.0205 ± 0.029 | 0.0085 ± 0.05 | 0.0155 ± 0.042 | -0.002 ± 0.014 | -0.0135 ± 0.005 | 0.001 ± 0.0071
BE3C:CD54/ICAM-1 | -0.007 ± 0.0057 | -0.0025 ± 0.0035 | -0.016 | 0 ± 0.0085 | 0 ± 0.0042 | 0.001 ± 0.011 | -0.0115 ± 0.0092 | -0.022 ± 0.017 | 0.013 ± 0.0057 | 0.0185 ± 0.018 | -0.003 ± 0.03 | -0.008 ± 0.016 | -0.001 ± 0.018 | -0.0085 ± 0.0078 | -0.0045 ± 0.013 | 0.01 ± 0.031 | 0.0115 ± 0.037 | 0.0145 ± 0.033 | 0.0295 ± 0.033
BE3C:CD87/uPAR | 0.011 ± 0.034 | 0.0215 ± 0.0078 | 0.027 ± 0.0085 | 0.0225 ± 0.013 | 0.0075 ± 0.0078 | -0.014 ± 0.035 | 0.012 ± 0.014 | 0.0075 ± 0.0021 | -0.002 ± 0.0085 | 0.026 ± 0.0085 | -0.0195 ± 0.00071 | -0.01 ± 0.0071 | -0.0025 ± 0.019 | -0.0115 ± 0.00071 | 0.0035 ± 0.00071 | 0.0125 ± 0.018 | -0.0035 ± 0.0021 | -0.011 ± 0.0057 | 0.025 ± 0.024
